From the kinase profiling compilation of Christmann-Franck et al. (2016)

Columns and labels:
Assay in all cases: radiometric filter-binding kinase assay, Kinase HotSpot
Details in all cases: compound 0.5 µM; ATP 10 µM
[1] = molecular target: MARK4 (human) (UniProt Q96L34)
[2] = molecular target: AKT1 (human) (UniProt P31749)
[3] = molecular target: MAPKAPK3 (human) (UniProt Q16644)
[4] = molecular target: BLK (human) (UniProt P51451)
[5] = molecular target: OXSR1 (human) (UniProt O95747)
[6] = molecular target: KDR (human) (UniProt P35968)
[7] = molecular target: RIPK2 (human) (UniProt O43353)
[8] = molecular target: DMPK (human) (UniProt Q09013)
[9] = molecular target: PTK2 (human) (UniProt Q05397)
[10] = molecular target: MAP3K10 (human) (UniProt Q02779)
[11] = molecular target: CSNK1G2 (human) (UniProt P78368)
[12] = molecular target: PIM3 (human) (UniProt Q86V86)
[13] = molecular target: CDC42BPB (human) (UniProt Q9Y5S2)
[14] = molecular target: WNK2 (human) (UniProt Q9Y3S1)
[15] = molecular target: STK3 (human) (UniProt Q13188)
[16] = molecular target: MAPK12 (human) (UniProt P53778)
[17] = molecular target: DCLK2 (human) (UniProt Q8N568)
[18] = molecular target: CDK3 CCNE1 (human) (UniProt Q00526+P24864)
[19] = molecular target: PRKCG (human) (UniProt P05129)
[20] = molecular target: CAMK2A (human) (UniProt Q9UQM7)
[21] = molecular target: PNCK (human) (UniProt Q6P2M8)
[22] = molecular target: PBK (human) (UniProt Q96KB5)
PBK (human), sequence (Q96KB5 whole entry, looked up): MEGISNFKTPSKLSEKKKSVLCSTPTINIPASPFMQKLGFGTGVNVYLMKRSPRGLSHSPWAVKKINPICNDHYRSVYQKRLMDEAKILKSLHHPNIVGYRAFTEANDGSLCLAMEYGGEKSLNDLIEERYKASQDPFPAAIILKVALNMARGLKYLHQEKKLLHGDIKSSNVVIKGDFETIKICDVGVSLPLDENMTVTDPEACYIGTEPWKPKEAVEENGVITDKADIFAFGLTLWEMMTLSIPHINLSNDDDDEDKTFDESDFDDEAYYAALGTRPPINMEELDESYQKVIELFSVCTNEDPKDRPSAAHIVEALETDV

[23] = molecular target: JAK2 JH1 JH2 (human) (UniProt O60674)
[24] = molecular target: CAMK2G (human) (UniProt Q13555)
[25] = molecular target: MARK2 (human) (UniProt Q7KZI7)
[26] = molecular target: SGK2 (human) (UniProt Q9HBY8)
[27] = system: SGK1 (human), O00141 [S422D]
[28] = molecular target: SRPK3 (human) (UniProt Q9UPE1)
[29] = molecular target: PIM2 (human) (UniProt Q9P1W9)
PIM2 (human), sequence (Q9P1W9 whole entry, looked up): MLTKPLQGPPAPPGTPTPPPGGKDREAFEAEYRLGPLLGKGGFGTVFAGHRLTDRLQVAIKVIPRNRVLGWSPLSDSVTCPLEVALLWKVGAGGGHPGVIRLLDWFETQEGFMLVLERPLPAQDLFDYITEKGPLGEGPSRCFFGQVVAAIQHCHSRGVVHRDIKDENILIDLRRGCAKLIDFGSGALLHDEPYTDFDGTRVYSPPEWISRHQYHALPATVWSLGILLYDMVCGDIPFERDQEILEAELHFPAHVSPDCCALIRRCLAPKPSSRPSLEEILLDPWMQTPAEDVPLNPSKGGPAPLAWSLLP

[30] = molecular target: PDGFRA (human) (UniProt P16234)
[31] = molecular target: TYK2 JH1 catalytic (human) (UniProt P29597)
[32] = molecular target: GSK3A (human) (UniProt P49840)
[33] = molecular target: KIT (human) (UniProt P10721)
KIT (human), sequence (P10721 whole entry, looked up): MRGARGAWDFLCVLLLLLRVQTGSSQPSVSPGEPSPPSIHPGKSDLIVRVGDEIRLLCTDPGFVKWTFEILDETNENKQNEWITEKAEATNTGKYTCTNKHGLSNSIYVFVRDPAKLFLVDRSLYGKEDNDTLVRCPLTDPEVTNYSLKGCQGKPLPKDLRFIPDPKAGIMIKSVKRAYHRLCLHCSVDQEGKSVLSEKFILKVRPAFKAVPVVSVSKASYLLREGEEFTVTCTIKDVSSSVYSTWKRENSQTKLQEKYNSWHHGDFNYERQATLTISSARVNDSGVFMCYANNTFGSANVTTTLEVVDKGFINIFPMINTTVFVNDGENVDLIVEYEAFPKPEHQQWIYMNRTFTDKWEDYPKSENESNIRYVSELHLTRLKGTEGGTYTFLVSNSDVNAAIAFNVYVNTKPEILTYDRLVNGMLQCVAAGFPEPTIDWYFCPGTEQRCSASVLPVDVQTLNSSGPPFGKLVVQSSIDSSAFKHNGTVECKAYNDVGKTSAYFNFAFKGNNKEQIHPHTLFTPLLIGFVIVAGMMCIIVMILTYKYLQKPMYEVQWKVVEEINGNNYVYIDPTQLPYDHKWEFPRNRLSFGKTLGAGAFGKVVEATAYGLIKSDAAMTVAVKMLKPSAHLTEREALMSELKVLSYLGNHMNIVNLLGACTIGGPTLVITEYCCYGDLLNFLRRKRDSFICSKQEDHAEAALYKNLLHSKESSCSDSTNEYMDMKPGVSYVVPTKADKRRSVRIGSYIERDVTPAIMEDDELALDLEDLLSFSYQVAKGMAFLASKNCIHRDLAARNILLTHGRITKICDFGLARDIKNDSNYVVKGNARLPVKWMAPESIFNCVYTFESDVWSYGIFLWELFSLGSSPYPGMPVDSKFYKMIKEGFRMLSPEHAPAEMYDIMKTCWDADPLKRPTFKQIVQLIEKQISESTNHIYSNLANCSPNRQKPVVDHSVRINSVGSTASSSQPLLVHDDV

[34] = molecular target: HIPK3 (human) (UniProt Q9H422)
HIPK3 (human), sequence (Q9H422 whole entry, looked up): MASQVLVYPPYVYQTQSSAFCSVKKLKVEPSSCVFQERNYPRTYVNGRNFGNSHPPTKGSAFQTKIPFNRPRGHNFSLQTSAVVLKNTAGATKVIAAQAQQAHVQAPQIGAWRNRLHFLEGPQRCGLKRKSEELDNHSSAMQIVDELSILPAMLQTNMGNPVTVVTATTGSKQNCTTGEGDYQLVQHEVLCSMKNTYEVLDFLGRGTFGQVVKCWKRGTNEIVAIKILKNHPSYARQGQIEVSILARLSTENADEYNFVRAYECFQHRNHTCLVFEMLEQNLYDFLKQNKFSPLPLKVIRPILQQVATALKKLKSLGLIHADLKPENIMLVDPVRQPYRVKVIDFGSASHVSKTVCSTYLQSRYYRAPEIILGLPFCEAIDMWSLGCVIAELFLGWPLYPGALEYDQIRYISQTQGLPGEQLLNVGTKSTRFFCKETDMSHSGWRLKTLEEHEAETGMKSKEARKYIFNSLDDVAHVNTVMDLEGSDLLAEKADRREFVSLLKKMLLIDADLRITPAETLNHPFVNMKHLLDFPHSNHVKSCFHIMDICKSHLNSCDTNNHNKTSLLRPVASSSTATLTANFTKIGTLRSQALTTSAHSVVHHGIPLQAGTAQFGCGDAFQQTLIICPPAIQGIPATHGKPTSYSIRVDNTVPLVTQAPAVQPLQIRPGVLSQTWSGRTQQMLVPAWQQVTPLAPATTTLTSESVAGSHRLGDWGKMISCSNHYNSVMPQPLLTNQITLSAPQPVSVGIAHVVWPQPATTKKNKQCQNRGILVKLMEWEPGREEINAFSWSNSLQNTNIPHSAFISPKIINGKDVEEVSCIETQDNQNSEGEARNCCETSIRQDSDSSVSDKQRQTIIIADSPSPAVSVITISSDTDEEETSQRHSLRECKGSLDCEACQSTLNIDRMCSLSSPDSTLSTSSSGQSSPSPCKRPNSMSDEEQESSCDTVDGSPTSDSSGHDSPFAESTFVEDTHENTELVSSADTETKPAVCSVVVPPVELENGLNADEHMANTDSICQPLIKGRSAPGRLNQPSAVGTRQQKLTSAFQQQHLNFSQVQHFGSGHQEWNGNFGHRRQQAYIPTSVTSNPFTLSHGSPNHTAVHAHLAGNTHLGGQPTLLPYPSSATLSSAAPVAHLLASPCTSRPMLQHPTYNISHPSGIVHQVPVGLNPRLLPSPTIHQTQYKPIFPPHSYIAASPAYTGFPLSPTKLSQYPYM

[35] = molecular target: FES (human) (UniProt P07332)
[36] = molecular target: PIM1 (human) (UniProt P11309)
[37] = molecular target: DAPK1 (human) (UniProt P53355)
DAPK1 (human), sequence (P53355 whole entry, looked up): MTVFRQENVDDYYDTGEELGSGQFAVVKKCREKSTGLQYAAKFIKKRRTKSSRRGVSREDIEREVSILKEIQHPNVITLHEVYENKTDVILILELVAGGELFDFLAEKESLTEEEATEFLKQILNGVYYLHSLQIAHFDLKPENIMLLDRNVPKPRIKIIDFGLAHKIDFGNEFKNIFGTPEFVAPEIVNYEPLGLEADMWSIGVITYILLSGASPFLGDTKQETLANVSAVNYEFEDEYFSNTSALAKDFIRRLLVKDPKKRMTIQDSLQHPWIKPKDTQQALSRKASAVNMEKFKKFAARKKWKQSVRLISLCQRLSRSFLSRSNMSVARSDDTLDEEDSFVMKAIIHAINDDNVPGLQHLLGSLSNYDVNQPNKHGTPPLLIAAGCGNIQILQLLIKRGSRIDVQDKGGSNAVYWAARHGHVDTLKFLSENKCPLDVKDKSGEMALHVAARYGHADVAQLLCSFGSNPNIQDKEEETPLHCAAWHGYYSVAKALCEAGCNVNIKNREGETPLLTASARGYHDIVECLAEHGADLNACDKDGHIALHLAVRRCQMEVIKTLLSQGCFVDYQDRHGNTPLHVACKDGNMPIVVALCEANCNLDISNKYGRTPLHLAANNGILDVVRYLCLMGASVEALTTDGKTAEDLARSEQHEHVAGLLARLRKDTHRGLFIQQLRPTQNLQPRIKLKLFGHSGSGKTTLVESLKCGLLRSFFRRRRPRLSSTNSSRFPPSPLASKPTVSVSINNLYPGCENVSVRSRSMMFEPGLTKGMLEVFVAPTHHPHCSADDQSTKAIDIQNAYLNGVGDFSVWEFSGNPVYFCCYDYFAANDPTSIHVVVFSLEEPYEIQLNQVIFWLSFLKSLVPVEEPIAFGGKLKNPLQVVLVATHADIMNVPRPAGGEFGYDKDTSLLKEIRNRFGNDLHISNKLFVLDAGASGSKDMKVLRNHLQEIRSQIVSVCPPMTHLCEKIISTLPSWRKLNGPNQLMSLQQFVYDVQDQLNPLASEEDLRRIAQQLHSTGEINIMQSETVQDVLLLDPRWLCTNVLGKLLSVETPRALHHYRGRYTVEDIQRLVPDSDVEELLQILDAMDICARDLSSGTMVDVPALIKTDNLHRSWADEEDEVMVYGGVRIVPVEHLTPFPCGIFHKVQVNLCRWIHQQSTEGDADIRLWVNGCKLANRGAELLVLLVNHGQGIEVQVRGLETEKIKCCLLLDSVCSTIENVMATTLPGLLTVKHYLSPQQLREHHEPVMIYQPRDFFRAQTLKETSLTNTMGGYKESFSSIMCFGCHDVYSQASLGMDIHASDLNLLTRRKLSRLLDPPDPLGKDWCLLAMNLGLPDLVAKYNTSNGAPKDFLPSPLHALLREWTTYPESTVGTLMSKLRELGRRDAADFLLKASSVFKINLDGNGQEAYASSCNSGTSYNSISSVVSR

[38] = molecular target: LTK (human) (UniProt P29376)
[39] = molecular target: PKN2 (human) (UniProt Q16513)
[40] = molecular target: PLK2 (human) (UniProt Q9NYY3)
[41] = molecular target: WEE1 (human) (UniProt P30291)
[42] = molecular target: FLT3 (human) (UniProt P36888)

## COc1cc2c(N3CCN(C(=O)Nc4ccc(OC(C)C)cc4)CC3)ncnc2cc1OCCCN1CCCCC1
[1]
  residual activity: 98.7%
[2]
  residual activity: 102%
[3]
  residual activity: 103%
[4]
  residual activity: 100%
[5]
  residual activity: 95.8%
[6]
  residual activity: 106%
[7]
  residual activity: 110%
[8]
  residual activity: 101%
[9]
  residual activity: 101%
[10]
  residual activity: 101%
[11]
  residual activity: 95.5%
[12]
  residual activity: 100%
[13]
  residual activity: 100%
[14]
  residual activity: 97.4%
[15]
  residual activity: 94.7%
[16]
  residual activity: 96.4%
[17]
  residual activity: 103%
[18]
  residual activity: 90.6%
[19]
  residual activity: 90.9%
[20]
  residual activity: 101%
[21]
  residual activity: 97.7%
[22]
  residual activity: 98%
[23]
  residual activity: 101%
[24]
  residual activity: 101%
[25]
  residual activity: 109%
[26]
  residual activity: 105%
[27]
  residual activity: 123%
[28]
  residual activity: 102%
[29]
  residual activity: 113%
[30]
  residual activity: 11.1%
[31]
  residual activity: 97.9%
[32]
  residual activity: 105%
[33]
  residual activity: 45.1%
[34]
  residual activity: 101%
[35]
  residual activity: 105%
[36]
  residual activity: 97.8%
[37]
  residual activity: 103%
[38]
  residual activity: 101%
[39]
  residual activity: 110%
[40]
  residual activity: 99.8%
[41]
  residual activity: 97.5%

## COc1cc2c(Nc3ccc(Br)cc3F)ncnc2cc1OCC1CCN(C)CC1
[1]
  residual activity: 99.4%
[2]
  residual activity: 94.7%
[3]
  residual activity: 98.5%
[4]
  residual activity: 33.8%
[5]
  residual activity: 100%
[7]
  residual activity: 23.4%
[8]
  residual activity: 94.6%
[9]
  residual activity: 100%
[10]
  residual activity: 102%
[11]
  residual activity: 98.5%
[12]
  residual activity: 96.1%
[13]
  residual activity: 98%
[14]
  residual activity: 100%
[15]
  residual activity: 97.5%
[16]
  residual activity: 92.6%
[17]
  residual activity: 104%
[18]
  residual activity: 92.9%
[19]
  residual activity: 93.2%
[20]
  residual activity: 99.8%
[42]
  residual activity: 43.7%
[21]
  residual activity: 99.5%
[22]
  residual activity: 98.9%
[23]
  residual activity: 102%
[24]
  residual activity: 112%
[25]
  residual activity: 107%
[26]
  residual activity: 122%
[27]
  residual activity: 115%
[28]
  residual activity: 102%
[29]
  residual activity: 99.4%
[30]
  residual activity: 28.6%
[31]
  residual activity: 97.7%
[32]
  residual activity: 103%
[33]
  residual activity: 71.4%
[34]
  residual activity: 99.5%
[35]
  residual activity: 104%
[36]
  residual activity: 95%
[37]
  residual activity: 105%
[38]
  residual activity: 64.6%
[39]
  residual activity: 99.7%
[40]
  residual activity: 103%
[41]
  residual activity: 95.1%
